The record followed here is patent US20250049737A1, “Lauflumide and derivatives thereof for treating chronic fatigue syndrome and myalgic encephalomyelitis/chronic fatigue syndrome (ME/CFS)” (NLS Pharmaceutics AG, priority 2021, published 2025).

This test has as its target T1, Relaxin-3 (RXFP3) (h) (agonist radioligand) (Homo sapiens, UniProt Q9NSD7).
T1 sequence (Q9NSD7 1-469): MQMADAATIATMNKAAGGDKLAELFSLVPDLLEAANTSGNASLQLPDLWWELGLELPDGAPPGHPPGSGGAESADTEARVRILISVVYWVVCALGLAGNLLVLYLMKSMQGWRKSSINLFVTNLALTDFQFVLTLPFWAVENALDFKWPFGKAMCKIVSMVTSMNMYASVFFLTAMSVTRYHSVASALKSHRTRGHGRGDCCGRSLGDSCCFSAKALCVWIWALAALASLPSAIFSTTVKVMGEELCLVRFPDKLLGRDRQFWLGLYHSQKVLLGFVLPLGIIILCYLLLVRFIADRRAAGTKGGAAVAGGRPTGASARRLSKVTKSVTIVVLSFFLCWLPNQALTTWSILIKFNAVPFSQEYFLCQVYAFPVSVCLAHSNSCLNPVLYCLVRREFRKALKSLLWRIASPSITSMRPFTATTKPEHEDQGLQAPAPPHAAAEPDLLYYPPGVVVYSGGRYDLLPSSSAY
The experiment in a line: RXFP3 assay (Eurofins/leadHunter GPCR Biosensor cAMP Hunter). The class given is cell-based. How it is done:
Lauflumide is found to weakly bind with RXFP3 receptors (Study US073-0006869-Q Eurofins/leadHunter 8/1/19; unpublished data) (Table 1).
In these assays' compounds were tested in agonist and antagonist mode with the GPCR Biosensor Assays and match to this design:
1. cAMP Hunter cell lines were expanded from freezer stocks according to standard procedures.
2. Cells were seeded in a total volume of 20 μL into white walled, 384-well microplates and incubated at 37° C. for the appropriate time prior to testing.
3. cAMP modulation was determined using the DiscoverX HitHunter cAMP XS+ assay.
1. For agonist determination, cells were incubated with sample in the presence of EC80 forskolin to induce response.
2. Media was aspirated from cells and replaced with 15 μL 2:1 HBSS/10 mM Hepes: cAMP XS+ Ab reagent.
3. […]
2. Microplates were read following signal generation with a PerkinElmer Envision™ instrument for chemiluminescent signal detection.
1. Compound activity was analyzed using CBIS data analysis suite (ChemInnovation, CA).
5. For Gi agonist mode assays, percentage activity is calculated using the following formula: […]
8. For Gi antagonist or negative allosteric mode assays, percentage inhibition is calculated using the following formula: % Inhibition=100%×(mean RLU of test sample−mean RLU of EC80 control)/(mean RLU of forskolin positive control−mean RLU of […]

Regarding `NC(=O)C[S@@+]([O-])C(c1ccc(F)cc1)c1ccc(F)cc1` [Lauflumide, 2-[(R)-((bis(4-fluorophenyl)methane)sulfinyl)]acetamide], the % Inhibition (usually the percentage by which the read-out fell short of the control) at 10^−5M came out at 23.9%.
